Measurements reported in article PMC8143291, “Cytotoxicity and Microbicidal Activity of Commonly Used Organic Solvents: A Comparative Study and Application to a Standardized Extract from Vaccinium macrocarpon” (Toxics, 2021).

How the values were obtained:
Experiment in all cases: Broth microdilution MIC/MBC
Conditions in all cases: 24 h exposure; v/v; n = 3
S. Aureus ATCC 29213 = type: cell-based, Staphylococcus aureus
Text: (§1) The bacterial strains used for AST of the solvents included: Staphylococcus aureus (ATCC 29213), Staphylococcus aureus—MRSA (NBIMCC 8327—resistant to methicillin and oxacillin, National Bulgarian Collection for Industrial Microorganisms and Cell Cultures, Sofia, Bulgaria), Streptococcus pyogenes (SAIMC 10535, Collection of the Stephan Angeloff Institute of Microbiology, Sofia, Bulgaria), Enterococcus faecalis (ATCC 29212), Escherichia coli (ATCC 35218), Pseudomonas aeruginosa (ATCC 27853), and Yersinia enterocolitica (IP864 O:3, Collection of Institut Pasteur, Paris, France). The selected strains are the most often investigated ones in the AST research studies in correspondence with the standard ISO 20776-1 Part 1: Reference method for testing the in vitro activity of antimicrobial agents against rapidly growing aerobic bacteria involved in infectious diseases. The antimycotic activity was tested on Candida albicans (CBS 562, Utrecht, The Netherlands). The strains S. aureus, MRSA, E. coli and E. faecalis were grown on Mueller–Hinton broth/agar (MHB/MHA); S. pyogenes, P. aeruginosa, Y. enterocolitica and C. albicans were grown on brain heart infusion (BHI) broth/agar; E. coli was also grown on Luria–Bertani broth/agar (LBB/LBA).
(§2) The minimum inhibitory concentration (MIC) for each solvent was estimated by the broth microdilution method (BMD) in 96-well microplates, following ISO 20776/1-2006 [3] and CLSI protocols. Briefly, a standardized bacterial inoculum was prepared from each bacterial species by suspending 3–4 colonies from a pure culture into 4 mL sterile saline. The turbidity of the inocula was adjusted to McFarland 0.5 (1.0 × 10^8 CFU/mL, λ = 600 nm), and 50 µL were resuspended in 10 mL of the appropriate culture medium for each strain. The bacterial inocula were added to microtiter trays containing equivalent volumes of medium loaded with the relevant solvent in concentrations varying from 0.025 to 25% volume fraction. The final volume of each sample was 100 µL/well. The plates were incubated at 37 °C for 24 h. The pure culture medium served as a negative control. Every MIC was evaluated visually as the lowest concentration without visible growth. […] MBC was defined as the lowest compound’s concentration reducing the colony growth of the initial bacterial inoculum by ≥ 99.9%.

[1] = tested on: S. Aureus MRSA NBIMCC 8327; type: cell-based, Staphylococcus aureus
Text: as §1, §2

S. pyogenes SAIMC 10535 = type: cell-based, Streptococcus pyogenes
Text: as §1, §2

E. faecalis ATCC 29212 = type: cell-based, Enterococcus faecalis
Text: as §1, §2

P. aeruginosa ATCC 27853 = type: cell-based, Pseudomonas aeruginosa
Text: as §1, §2

[2] = tested on: Y. enterocolitica IP 864 O: 3; type: cell-based, Yersinia enterocolitica
Text: as §1, §2

[3] = tested on: Candida Albicans SAIMC 562; type: cell-based
Text: as §1, with “The antimycotic activity was tested on Candida albicans (CBS 562, Utrecht, The Netherlands).” left out
as §2

Compound | MBC (S. Aureus ATCC 29213) [%] | MIC (S. Aureus ATCC 29213) [%] | MBC [1] [%] | MIC [1] [%] | MBC (S. pyogenes SAIMC 10535) [%] | MIC (S. pyogenes SAIMC 10535) [%] | MBC (E. faecalis ATCC 29212) [%] | MIC (E. faecalis ATCC 29212) [%] | MBC (P. aeruginosa ATCC 27853) [%] | MIC (P. aeruginosa ATCC 27853) [%] | MBC [2] [%] | MIC [2] [%] | MBC [3] [%] | MIC [3] [%]
C[S+](C)[O-] [DMSO, dimethyl sulfoxide] | >25 | 25 | >25 | 25 | >25 | 12.5 | >25 | 12.5 | >25 | 6.25 | 6.25 | 3.125 | 6.25 | 6.25
CCO [EtOH, ethanol] | >25 | >25 | >25 | >25 | >25 | >25 | >25 | >25 | >25 | >25 | >25 | >25 | >25 | >25
polyethylene glycol of average molecular weight 400 [PEG-400] | >25 | >25 | 25 | 25 | >25 | 25 | >25 | 25 | >25 | 25 | 12.5 | 12.5 | >25 | >25
